# Measurements reported in patent US20040102622A1, “Modulation of hepatocyte growth factor receptor expression” (Isis Pharmaceuticals Inc., priority 2002, published 2004).
# Test system: human hepatocyte growth factor receptor mRNA
row,Substance,inhibition of human hepatocyte growth factor receptor expression
1,"ISIS 209537: 2′-MOE gapmer, phosphorothioate backbone, sequence agaggtttatctgccaaaac (antisense AGAGGTTTATCTGCCAAAAC; all phosphorothioate, sugars by position and methylation of C not given here; 2'-MOE gapmer)",at least 35%
2,"ISIS 209539: 2′-MOE gapmer, phosphorothioate backbone, sequence gcttccccattgctgttagg (antisense GCTTCCCCATTGCTGTTAGG; all phosphorothioate, sugars by position and methylation of C not given here; 2'-MOE gapmer)",at least 35%
3,"ISIS 209540: 2′-MOE gapmer, phosphorothioate backbone, sequence cacatcccttgtaagttgga (antisense CACATCCCTTGTAAGTTGGA; all phosphorothioate, sugars by position and methylation of C not given here; 2'-MOE gapmer)",at least 35%
4,"ISIS 209541: 2′-MOE gapmer, phosphorothioate backbone, sequence accaagtactgtaagagagg (antisense ACCAAGTACTGTAAGAGAGG; all phosphorothioate, sugars by position and methylation of C not given here; 2'-MOE gapmer)",at least 35%
5,"ISIS 209542: 2′-MOE gapmer, phosphorothioate backbone, sequence cttgcttccactaaaaatga (antisense CTTGCTTCCACTAAAAATGA; all phosphorothioate, sugars by position and methylation of C not given here; 2'-MOE gapmer)",at least 35%
6,"ISIS 209543: 2′-MOE gapmer, phosphorothioate backbone, sequence gatgccaccgtgcactgtgc (antisense GATGCCACCGTGCACTGTGC; all phosphorothioate, sugars by position and methylation of C not given here; 2'-MOE gapmer)",at least 35%
7,"ISIS 209544: 2′-MOE gapmer, phosphorothioate backbone, sequence taatagtgcaattttggcaa (antisense TAATAGTGCAATTTTGGCAA; all phosphorothioate, sugars by position and methylation of C not given here; 2'-MOE gapmer)",at least 35%
8,"ISIS 209546: 2′-MOE gapmer, phosphorothioate backbone, sequence aattcaagttttggactcca (antisense AATTCAAGTTTTGGACTCCA; all phosphorothioate, sugars by position and methylation of C not given here; 2'-MOE gapmer)",at least 35%
9,"ISIS 209547: 2′-MOE gapmer, phosphorothioate backbone, sequence tcctgcttcaatttcccata (antisense TCCTGCTTCAATTTCCCATA; all phosphorothioate, sugars by position and methylation of C not given here; 2'-MOE gapmer)",at least 35%
10,"ISIS 209548: 2′-MOE gapmer, phosphorothioate backbone, sequence tcaagaagccctcaatattt (antisense TCAAGAAGCCCTCAATATTT; all phosphorothioate, sugars by position and methylation of C not given here; 2'-MOE gapmer)",at least 35%
11,"ISIS 209549: 2′-MOE gapmer, phosphorothioate backbone, sequence cctgagcattactatctctt (antisense CCTGAGCATTACTATCTCTT; all phosphorothioate, sugars by position and methylation of C not given here; 2'-MOE gapmer)",at least 35%
12,"ISIS 209550: 2′-MOE gapmer, phosphorothioate backbone, sequence tgcgcgctgtagtcccagct (antisense TGCGCGCTGTAGTCCCAGCT; all phosphorothioate, sugars by position and methylation of C not given here; 2'-MOE gapmer)",at least 35%
